Test results: patent US6429024B1, “Test method for IgA nephropathy” (Asahi Kasei Kabushiki Kaisha, priority 1998, dated 2002)

System: antibody recognizing the core peptide of the hinge region in IgA1 (IgG class, serum of patient with IgA nephropathy)
Test: Assay of inhibitory activities of various synthetic peptides (enzyme immunoassay: patient serum pre-incubated with peptide, then reacted with immobilized IgA1 hinge core peptide-BSA antigen)
Type: binding
Conditions: synthetic peptide 1 μg/ml in PBS mixed 1:1 with 1/50 diluted serum, room temperature 3 hours; peroxidase labeled anti-human IgG; absorbancy at 490 nm
Experimental: Antigen was prepared according to the method described in the above example 1 (1).
The above antigen solution was dissolved to […] in 0.015 M carbonate buffer (pH 9.6) and each 100 μl was added in each well of the 96 well microtiter plate (A Flow General Co., Linbro/Titertek EIA Microtitration plate, Cat. No. 76-381-04), then incubated at 4° C. overnight (standing culture).
PBS (0.01 M phosphate buffer, pH 7.5 containing 0.15 M NaCl) solution (200 μl) containing 1% bovine serum albumin (fraction V, purchased from SIGMA Inc.) was added in each well, and incubated at 4° C. overnight. Each well was washed with 200 μl of PBS. The antigen was immobilized.
Synthetic peptide [the core peptide constructing a part of the hinge region in IgA1 as follows:
was dissolved to 1 μg/ml with PBS. The above diluted serum of patient with IgA nephropathy and the solution of synthetic peptide were mixed in equal volume (1:1). Also the above diluted serum of patient with IgA nephropathy and PBS without containing synthetic peptide (hereinafter designated as blank solution) were mixed in equal volume (1:1). These mixtures were incubated at room temperature for 3 hours.
After termination of the incubation, each solution (100 μl) was added in each well, which was provided with the antigen immobilized therein, of the 96 well microtiter plate and incubated at room temperature for 3 hours.
Each well was washed three times with 200 μl of PBS containing 0.1% bovine serum albumin, 0.05% Tween-20 (hereinafter designated as PS/BSA/Tween).
A solution (100 μl) of peroxidase labeled anti-human IgG (purchased from Organon Tecknika Inc.), which was diluted to 1/200 with PBS, was added in each well.
After incubation at room temperature for 1 hour, each well was washed three times with PS/BSA/Tween (200 μl).
Coloring agent (100 μl)(orthophenylenediamine 20 mg, sodium […]·12H2O 1.795 g, citric acid 0.525 g, and hydrogen peroxide 15 μl were dissolved in water 50 ml) was added in each well, and incubated at room temperature for 1 hour.
After the incubation was terminated, absorbency at 490 nm was measured using microplate reader (Bio-Red Inc., Microplate reader Model 450).

Thr Pro Pro Thr Pro (TPPTP) [core peptide constructing a part of the hinge region in IgA1]
inhibitory action on the reaction of patient serum with the core peptide of the hinge region in IgA1: inhibitory action on the reaction was observed

Pro Thr Pro Ser Pro (PTPSP) [core peptide constructing a part of the hinge region in IgA1]
inhibitory action on the reaction of patient serum with the core peptide of the hinge region in IgA1: inhibitory action on the reaction was observed

Leu Pro Pro Leu Thr (LPPLT; listed as Bovine sp.) [core peptide constructing a part of the bovine serum albumin, reference compound]
inhibitory action on the reaction of patient serum with the core peptide of the hinge region in IgA1: no inhibitory action on the reaction was observed

Thr Pro Asp Glu Thr (TPDET; listed as Bovine sp.) [core peptide constructing a part of the bovine serum albumin, reference compound]
inhibitory action on the reaction of patient serum with the core peptide of the hinge region in IgA1: no inhibitory action on the reaction was observed

Leu Lys Pro Asp Pro (LKPDP; listed as Bovine sp.) [core peptide constructing a part of the bovine serum albumin, reference compound]
inhibitory action on the reaction of patient serum with the core peptide of the hinge region in IgA1: no inhibitory action on the reaction was observed

Thr Pro Val Glu Ser (TPVES; listed as Bovine sp.) [core peptide constructing a part of the bovine serum albumin, reference compound]
inhibitory action on the reaction of patient serum with the core peptide of the hinge region in IgA1: no inhibitory action on the reaction was observed

Pro Val Pro Ser Thr (PVPST) [core peptide constructing a part of the hinge region in IgA1]
inhibitory action on the reaction of patient serum with the core peptide of the hinge region in IgA1: inhibitory action on the reaction was observed

Ser Pro Asp Leu Pro (SPDLP; listed as Bovine sp.) [core peptide constructing a part of the bovine serum albumin, reference compound]
inhibitory action on the reaction of patient serum with the core peptide of the hinge region in IgA1: no inhibitory action on the reaction was observed

Pro Ser Thr Pro Pro (PSTPP) [core peptide constructing a part of the hinge region in IgA1]
inhibitory action on the reaction of patient serum with the core peptide of the hinge region in IgA1: inhibitory action on the reaction was observed

Pro Ser Pro Ser Cys (PSPSC) [core peptide constructing a part of the hinge region in IgA1]
inhibitory action on the reaction of patient serum with the core peptide of the hinge region in IgA1: inhibitory action on the reaction was observed

Pro Ser Pro Ser Thr (PSPST) [core peptide constructing a part of the hinge region in IgA1]
inhibitory action on the reaction of patient serum with the core peptide of the hinge region in IgA1: inhibitory action on the reaction was observed
